From patent US20230331673A1, “COMPOSITION OF COMPOUNDS THAT MODULATE CELL METABOLISM AND METHODS OF USE” (CRESCENTA BIOSCIENCES, priority 2020, published 2023) come the findings set out here.

The structures appear in SMILES notation.

The test system of this experiment is differentiated 3T3-L1 mouse adipocyte cells. The experiment is described as follows: Adipocyte glucose consumption in differentiated 3T3-L1 mouse adipocyte cells (loss of glucose from medium, colorimetric). The format is cell-based. The following applies: compound 10 μM, 22 to 24 hours, differentiated 3T3-L1 adipocytes, compound/DMSO, read-out: Glucose consumption (fold change) Mean. The protocol:
Activity of compounds on adipocyte glucose consumption was tested in differentiated 3T3-L1 mouse adipocyte cells. 3T3-L1 preadipocytes (ATCC) were routinely cultured in a growth medium composed of DMEM high-glucose (Sigma), 10% FBS (Gibco), 10 U/ml penicillin and 10 μg/ml streptomycin (P/S; Gibco). To induce adipogenic differentiation, a confluent layer of 3T3-L1 cells were incubated with the growth medium containing 2 μM rosiglitazone, 1 μM dexamethasone, 500 μM IBMX, and 1 μg/ml insulin (Sigma). Forty-eight (48) hours later (on day 2) and on days 4 and 6, medium of the cells was replaced with fresh medium containing 1 μg/ml insulin. On days 8 and 10, the medium was refreshed with regular growth medium and addition of insulin was omitted. On day 11 or 12, medium of the cells were replaced with fresh medium containing either the indicated compounds (10 μM) or the vehicle in which the compounds were dissolved (DMSO). The final concentration of DMSO was 0.1% (v/v). Growth medium containing 0.1% DMSO was incubated in culture wells containing no cells and used as control. Twenty-two to 24 hours later, medium was harvested and subjected to centrifugation at 10,000 g for 5 min. Glucose concentration in the supernatants was determined using a colorimetric assay (Glucose Assay Kit I, Eton Biosciences). Glucose consumption in compound and vehicle treated cells was measured as loss of glucose from the culture medium and represented as mean fold change (compound/DMSO) t standard deviation (SD).
Consider `CCCCCCC1CCCc2c(n(Cc3cccc(C(=O)O)c3)c3c(C(=O)O)cccc23)C1` (stereo not drawn) [5-[(3-carboxyphenyl)methyl]-7-hexyl-5H,6H,7H,8H,9H,10H-cyclohepta[b]indole-4-carboxylic acid], for which the fold induction at 10 µM was 1.15. The figure for `CCCCCCC1CCCc2c(n(Cc3cccc(Cl)c3)c3c(C(=O)O)cccc23)C1` (stereo not drawn) [5-[(3-chlorophenyl)methyl]-7-hexyl-5H,6H,7H,8H,9H,10H-cyclohepta[b]indole-4-carboxylic acid] is 1.18; for `CCCCCCC1CCCc2c(n(Cc3cccc(C#N)c3F)c3c(C(=O)O)cccc23)C1` (stereo not drawn) [5-[(3-cyano-2-fluorophenyl)methyl]-7-hexyl-5H,6H,7H,8H,9H,10H-cyclohepta[b]indole-4-carboxylic acid] it is 1.36; for `CCCCCCC1CCCc2c(n(Cc3cccc(C#N)c3)c3c(C(=O)O)cc(F)cc23)C1` (stereo not drawn) [5-[(3-cyanophenyl)methyl]-2-fluoro-7-hexyl-5H,6H,7H,8H,9H,10H-cyclohepta[b]indole-4-carboxylic acid] it is 1.33. The same measure for `N#Cc1cccc(Cn2c3c(c4cccc(C(=O)O)c42)CCCC(CCc2ccccc2)C3)c1` (stereo not drawn) [5-[(3-cyanophenyl)methyl]-7-(2-phenylethyl)-5H,6H,7H,8H,9H,10H-cyclohepta[b]indole-4-carboxylic acid]: 1.02. The figure for `CCC1CCCc2c(n(Cc3cccc(C#N)c3)c3c(C(=O)O)cccc23)C1` (stereo not drawn) [5-[(3-cyanophenyl)methyl]-7-ethyl-5H,6H,7H,8H,9H,10H-cyclohepta[b]indole-4-carboxylic acid] is 1.16; for `CCCCCCC1CCCc2c(n(Cc3cccc(C#N)c3)c3c(C(=O)O)cccc23)C1` (stereo not drawn) [5-[(3-cyanophenyl)methyl]-7-hexyl-5H,6H,7H,8H,9H,10H-cyclohepta[b]indole-4-carboxylic acid] it is 1.26; for `CCCCCCCCC1CCCc2c(n(Cc3cccc(C#N)c3)c3c(C(=O)O)cccc23)C1` (stereo not drawn) [5-[(3-cyanophenyl)methyl]-7-octyl-5H,6H,7H,8H,9H,10H-cyclohepta[b]indole-4-carboxylic acid] it is 1.12.

Turning to `CCCCCC1CCCc2c(n(Cc3cccc(C#N)c3)c3c(C(=O)O)cccc23)C1` (stereo not drawn) [5-[(3-cyanophenyl)methyl]-7-pentyl-5H,6H,7H,8H,9H,10H-cyclohepta[b]indole-4-carboxylic acid], the fold induction at 10 µM came out at 1.35. The same measure for `CCC1CCCCc2c1c1cccc(C(=O)O)c1n2Cc1cccc(C#N)c1` (stereo not drawn) [5-[(3-cyanophenyl)methyl]-10-ethyl-5H,6H,7H,8H,9H,10H-cyclohepta[b]indole-4-carboxylic acid]: 1.15; for `CCCCCC1CCCCc2c1c1cccc(C(=O)O)c1n2Cc1cccc(C#N)c1` (stereo not drawn) [5-[(3-cyanophenyl)methyl]-10-pentyl-5H,6H,7H,8H,9H,10H-cyclohepta[b]indole-4-carboxylic acid]: 1.2; for `CCCC1CCCCc2c1c1cccc(C(=O)O)c1n2Cc1cccc(C#N)c1` (stereo not drawn) [5-[(3-cyanophenyl)methyl]-10-propyl-5H,6H,7H,8H,9H,10H-cyclohepta[b]indole-4-carboxylic acid]: 1.18.

For the compound `CCCCCCC1CCCc2c(n(Cc3cccc(F)c3)c3c(C(=O)O)cccc23)C1` (stereo not drawn) [5-[(3-fluorophenyl)methyl]-7-hexyl-5H,6H,7H,8H,9H,10H-cyclohepta[b]indole-4-carboxylic acid], the fold induction at 10 µM was 1.14. With `CCCCCCC1CCCc2c(n(Cc3ccc(C(N)=O)cc3)c3c(C(=O)O)cccc23)C1` (stereo not drawn) [5-[(4-carbamoylphenyl)methyl]-7-hexyl-5H,6H,7H,8H,9H,10H-cyclohepta[b]indole-4-carboxylic acid], the fold induction at 10 µM is 1.05. On to `CCCCCCC1CCCc2c(n(Cc3ccc(C#N)cc3)c3c(C(=O)O)cccc23)C1` (stereo not drawn) [5-[(4-cyanophenyl)methyl]-7-hexyl-5H,6H,7H,8H,9H,10H-cyclohepta[b]indole-4-carboxylic acid], for which the fold induction at 10 µM came out at 0.94. In the case of `CCCCCCC1CCCc2c(n(Cc3ccc(F)cc3)c3c(C(=O)O)cccc23)C1` (stereo not drawn) [5-[(4-fluorophenyl)methyl]-7-hexyl-5H,6H,7H,8H,9H,10H-cyclohepta[b]indole-4-carboxylic acid], the fold induction at 10 µM came out at 1.17. The figure for `CCCCCCC1CCCc2c(n(Cc3ccc(C#N)o3)c3c(C(=O)O)cccc23)C1` (stereo not drawn) [5-[(5-cyanofuran-2-yl)methyl]-7-hexyl-5H,6H,7H,8H,9H,10H-cyclohepta[b]indole-4-carboxylic acid] is 1.29; for `CCCCCCC1CCCc2c(n(Cc3cncc(C#N)c3)c3c(C(=O)O)cccc23)C1` (stereo not drawn) [5-[(5-cyanopyridin-3-yl)methyl]-7-hexyl-5H,6H,7H,8H,9H,10H-cyclohepta[b]indole-4-carboxylic acid] it is 1.06. The figure for `CCCCCCC1CCCc2c(n(Cc3ccc(C#N)s3)c3c(C(=O)O)cccc23)C1` (stereo not drawn) [5-[(5-cyanothiophen-2-yl)methyl]-7-hexyl-5H,6H,7H,8H,9H,10H-cyclohepta[b]indole-4-carboxylic acid] is 1.05; for `CCCCCCC1CCCc2c(n(Cc3csc(C#N)c3)c3c(C(=O)O)cccc23)C1` (stereo not drawn) [5-[(5-cyanothiophen-3-yl)methyl]-7-hexyl-5H,6H,7H,8H,9H,10H-cyclohepta[b]indole-4-carboxylic acid] it is 1.2. The figure for `CCCCCCC1CCCc2c(n(Cc3cccc(C(N)=O)n3)c3c(C(=O)O)cccc23)C1` (stereo not drawn) [5-[(6-carbamoylpyridin-2-yl)methyl]-7-hexyl-5H,6H,7H,8H,9H,10H-cyclohepta[b]indole-4-carboxylic acid] is 1.23. For the compound `CCCCCCC1CCCc2c(n(Cc3cccc(C#N)n3)c3c(C(=O)O)cccc23)C1` (stereo not drawn) [5-[(6-cyanopyridin-2-yl)methyl]-7-hexyl-5H,6H,7H,8H,9H,10H-cyclohepta[b]indole-4-carboxylic acid], the fold induction at 10 µM was 1.28.

As for `CCCCCCC1CCCc2c(n(Cc3cccc(F)n3)c3c(C(=O)O)cccc23)C1` (stereo not drawn) [5-[(6-fluoropyridin-2-yl)methyl]-7-hexyl-5H,6H,7H,8H,9H,10H-cyclohepta[b]indole-4-carboxylic acid], the fold induction at 10 µM stood at 1.25. The same measure for `CCCCCCC1CCCc2c(n(Cc3cccc(C(=O)O)n3)c3c(C(=O)O)cccc23)C1` (stereo not drawn) [6-({4-carboxy-7-hexyl-5H,6H,7H,8H,9H,10H-cyclohepta[b]indol-5-yl}methyl)pyridine-2-carboxylic acid]: 0.96. The same measure for `CCCCC1CCCCc2c1n(Cc1cccc(C(N)=O)c1)c1c(C(=O)O)cccc21` (stereo not drawn) [6-butyl-5-[(3-carbamoylphenyl)methyl]-5H,6H,7H,8H,9H,10H-cyclohepta[b]indole-4-carboxylic acid]: 1.03. Consider `CCCCC1CCCCc2c1n(Cc1cccc(C#N)c1)c1c(C(=O)O)cccc21` (stereo not drawn) [6-butyl-5-[(3-cyanophenyl)methyl]-5H,6H,7H,8H,9H,10H-cyclohepta[b]indole-4-carboxylic acid], for which the fold induction at 10 µM was 1.16. In the case of `CCCCC1CCCc2c(n(Cc3ccccc3C(N)=O)c3c(C(=O)O)cccc23)C1` (stereo not drawn) [7-butyl-5-[(2-carbamoylphenyl)methyl]-5H,6H,7H,8H,9H,10H-cyclohepta[b]indole-4-carboxylic acid], the fold induction at 10 µM stood at 1.11.
